Tests used:
rodents [1] = details: single oral dose; cited from earlier work
dogs = details: single oral dose; cited from earlier work
monkeys = details: single oral dose; cited from earlier work
human subjects = details: in vivo; cited from earlier work
rodents [2] = assay: Single dose toxicity after oral administration, rodents; details: in vivo
patients with ALS = details: Part 1

SMILES	doses at which death occurred (rodents [1]) [mg/kg]	dose at which vomiting occurred (dogs) [mg/kg]	dose at which major excitation was displayed (monkeys) [mg/kg]	dose shown to cause somnolence in humans (human subjects) [mg]	initial single dose not tolerated (human subjects)	maximally tolerated dose for humans (Mirapex product insert) (human subjects) [mg/day]	human dose equivalent to the lethal rodent dose (rodents [2]) [mg/kg]	human dose equivalent to the lethal rodent dose for a 70 kg individual (rodents [2]) [mg]	effect of riluzole on change from baseline in ALSFRS-R scores (patients with ALS; across all treatment groups)	mean change from baseline to study endpoint in ALSFRS-R score (patients with ALS; placebo with riluzole)
CCCN[C@H]1CCc2nc(N)sc2C1 [pramipexole, (6S)-2-amino-4,5,6,7-tetrahydro-6-(propylamino)benzothiazole]	70 to 105	≥ 0.0007	3.5	1.5	greater than 0.20 mg	4.5	7 to 12	500 to 850		
Nc1nc2ccc(OC(F)(F)F)cc2s1 [riluzole, reference compound]									no effect	−3.6
